Test results from US10576082B2, “ErbB2 regulates autophagic flux to modulate the proteostasis of APP-CTFs in alzheimer's disease” (Academia Sinica, priority 2016, dated 2020).

Tests used:
[1] = test system: zebrafish embryos expressing GFP-tagged C99; experiment: Phenotype of C99-expressing zebrafish embryos (curved trunk, Notch-dependent somite development); format: in vivo; conditions: zebrafish, in vivo
[2] = test system: γ-secretase cleavage of CFP-C99 and YFP-NΔE in HEK293 (CCNY) cells; experiment: Cell-based C99-NΔE dual γ-secretase assay (CCNY cells); conditions: CCNY cell line
Procedure: To generate a cellular γ-secretase assay that could be used to simultaneously identify cleavage of C99 and NΔE and the production of AICD and NICD, we […] HEK293 cells with pAS2-CCNY and selected transfectants with DMEM medium containing 10% FBS and 250 μg/ml zeocin. […] The CCNY clone was selected and optimized for the cell-based C99-NΔE dual γ-secretase assay.

[3] = test system: γ-secretase-mediated proteolysis of NΔE (NG cells); experiment: Cell-based NΔE-specific γ-secretase assay (NG cells, Gal4 luciferase reporter); conditions: dose-dependent manner
Procedure: (§1) (A) Adherent CG and NG cells (20,000 cells/well) were treated with 1 μM of the indicated ErbB1/2-selective tyrosine kinase inhibitors in the presence of 1 μg/ml tetracycline at 37° C. for 24 h. The luminescence signals emitted by cells treated with vehicle alone (Ctrl, 0.1% DMSO) were referred to as 100% relative luminescence signals. The luminescence signals generated by γ-secretase-mediated proteolysis of C99 (CG) or NΔE (NG) were determined using the Steady-Glo luciferase assay reagent. (B) HEK293 overexpressing C99-YFP cells were treated with 1 μM of the indicated ErbB1/2 tyrosine kinase inhibitors at 37° C. for 24 h. Clarified lysates were analyzed by Western blotting and quantified by Image J. (C) HEK293 overexpressing ErbB1 ErbB2, CFP-tagged C99, and YFP-tagged NΔE cells were infected with gene-targeting shRNA-encoding lentivirus (shErbB1 or shErbB2) at 37° C. for 48 h. Clarified lysates containing equivalent amounts of proteins were examined by Western blotting and quantified by Image J. (D) CG and NG cells were infected with gene-targeting shRNA-encoding lentivirus at 37° C. for 48 h. Following induction with 1 μg/ml tetracycline for 24 h. […] Data are shown as the mean±SD from three independent experiments, and were analyzed by Student's t-tests. * p<0.05. […]

[4] = test system: γ-secretase-mediated proteolysis of C99 (CG cells); experiment: Cell-based C99-specific γ-secretase assay (CG cells, Gal4 luciferase reporter); conditions: dose-dependent manner
Procedure: as §1

[5] = test system: HEK293 cells overexpressing ErbB1, ErbB2, CFP-tagged C99, and YFP-tagged NΔE; experiment: Lysosome inhibitor rescue after ErbB2 knockdown, Western blotting of HEK293 cells co-expressing ErbB1, ErbB2, CFP-C99, YFP-NΔE; format: cell-based; conditions: 10 μM chloroquine or 10 mM ammonium chloride, 37° C., 24 h after 48 h shRNA infection
Procedure: Clarified lysates containing equivalent amounts of proteins were analyzed by Western blotting. (B, C) HEK293 overexpressing CFP-LC3 cells were infected with lentivirus encoding shRNA targeting LacZ ErbB2, or ErbB2 plus ATG5 for 48 h. The autophagy induction was analyzed by fluorescence confocal microscopy. The number of CFP-LC3 puncta per cell was quantified. The levels of LC3-I, LC3-II, and GAPDH were analyzed by Western blotting. (D, E) HEK293 cells overexpressing ErbB1, ErbB2, CFP-tagged C99, and YFP-tagged NΔE were infected with lentivirus encoding shRNA targeting LacZ (Ctrl), ErbB1, or ErbB2 for 48 h. […] The levels of LC3-1, LC3-II, and p62 were analyzed by Western blotting and quantified by NIH Image J. Conditional media were harvested and processed for determination of secreted Aβ40 using a colourimetric Aβ40-specific ELISA kit. […] The quantitative data are shown as mean±SD from three independent experiments, and were analyzed by Student's t-tests. * p<0.05.
Preparation of cell extracts. […] Following the removal of cell debris by centrifugation, clarified lysates were processed for immunoprecipitation, Western blotting, or quantification of BCA protein content.
Western blotting analysis. Protein concentration was measured with the BCA Protein Assay Kit (Pierce). […]

Structure (SMILES): C[C@H](NC(=O)Cc1cc(F)cc(F)c1)C(=O)N[C@H](C(=O)OC(C)(C)C)c1ccccc1 [DAPT, N—[N-(3,5-difluorophenacetyl-L-alanyl)]-S-phenylglycine t-butyl ester]
- embryo phenotype (trunk, tail, pigmentation; developmental defects) [1]: severe developmental defects
- cleavage of CFP-C99 and YFP-NΔE [2]: completely suppressed
- γ-secretase-dependent luciferase signals in NG cells [3]: decreased γ-secretase-dependent luciferase signals
- γ-secretase-dependent luciferase signals in CG cells [4]: decreased γ-secretase-dependent luciferase signals

Structure (SMILES): Cl.N [ammonium chloride]
- rescue of the reduction in C99 and AICD elicited by ErbB2 knockdown [5]: rescued

Structure (SMILES): CCN(CC)CCCC(C)Nc1ccnc2cc(Cl)ccc12 (stereo not drawn) [chloroquine]
- rescue of the reduction in C99 and AICD elicited by ErbB2 knockdown [5]: rescued
